From patent publication EP0019764A1, “Trans-3-(4'-tert.-butyl-cyclohexyl-1')-2-methyl-1-(3'-methylpiperidino, 3',5'-dimethylpiperidino and 2', 6'-dimethylmorpholino) propane, process for their pure preparation, antimycotic agents containing them and their utilisation” (BASF Aktiengesellschaft, priority 1979, dated 1980)
Converted amounts (≈) assume the structure as drawn. Like-named read-outs stand apart in the source and are kept apart here.

Assays:
Assay in all cases: agar dilution test, minimal inhibitory concentration
Assay type in all cases: cell-based
Epidermophyton floccosum = conditions: Stamm No 157/M, Agardilutionstest, read-out: MHK-Werte
Source text: (§1) Die Wirkung gegenüber Mikroorganismen kann nach Methoden, wie sie beispielsweise in P. Klein, Bakteriologische Grundlagen der chemotherapeutischen Laboratoriumspraxis, Springer-Verlag Berlin, 1957, beschrieben sind, aufgezeigt werden.
(§2) Beispielsweise wurde geprüft, welche minimalen Hemmkonzentrationen (MHK-Werte) im Agardilutionstest gegen pathogene Pilze erreicht werden können.
(§3) In der folgenden Tabelle 1 sind die Ergebnisse zusammengefaßt: […]

Microsporum canis = conditions: Agardilutionstest, read-out: MHK-Werte
Source text: as §1, §2, §3

Microsporum ferrugineum = conditions: Stamm No 5/M, Agardilutionstest, read-out: MHK-Werte
Source text: as §1, §2, §3

Microsporum gypseum = conditions: Nannizzia gypsea; Stamm No 156/M; Agardilutionstest; read-out: MHK-Werte
Source text: as §1, §2, §3

[1] = test system: Trichophyton mentagrophytes; conditions: Agardilutionstest, read-out: MHK-Werte
Source text: as §1, §2, §3

Trichophyton rubrum = conditions: Stamm No 158/M, Agardilutionstest, read-out: MHK-Werte
Source text: as §1, §2, §3

Trichophyton violaceum = conditions: Stamm No 10/M, Agardilutionstest, read-out: MHK-Werte
Source text: as §1, §2, §3

[2] = test system: Trichophyton schoenleinii; conditions: Stamm No 9/M, Agardilutionstest, read-out: MHK-Werte
Source text: as §1, §2, §3

CC1CCCN(CC(C)C[C@H]2CC[C@@H](C(C)(C)C)CC2)C1 (relative stereo) [(1) cis, cis- und trans-3-(4-tert.-Butyl-cyclohexyl-1)-2-methyl-1-(3'-methyl-1-piperidino)-propan]
MIC (Epidermophyton floccosum): 0.25 µg/mL (≈ 0.852 µM)
MIC (Microsporum canis; Stamm No 167/M): 0.25 µg/mL (≈ 0.852 µM)
MIC (Microsporum canis; Stamm No 168/M): 0.0625 µg/mL (≈ 0.213 µM)
MIC (Microsporum canis; Stamm No 169/M): 0.5 µg/mL (≈ 1.7 µM)
MIC (Microsporum ferrugineum): 0.0312 µg/mL (≈ 0.106 µM)
MIC (Microsporum gypseum): 0.25 µg/mL (≈ 0.852 µM)
MIC ([1]; Stamm No 19/M): 0.5 µg/mL (≈ 1.7 µM)
MIC ([1]; Stamm No 21/M): 0.25 µg/mL (≈ 0.852 µM)
MIC ([1]; Stamm No 159/M): 0.0312 µg/mL (≈ 0.106 µM)
MIC ([1]; Stamm No 160/M): 0.25 µg/mL (≈ 0.852 µM)
MIC ([1]; Stamm No 172/M): 0.5 µg/mL (≈ 1.7 µM)
MIC ([1]; Stamm No 173/M): 0.25 µg/mL (≈ 0.852 µM)
MIC (Trichophyton rubrum): 0.25 µg/mL (≈ 0.852 µM)
MIC (Trichophyton violaceum): 0.0625 µg/mL (≈ 0.213 µM)

CC(CN1C[C@@H](C)O[C@@H](C)C1)C[C@H]1CC[C@@H](C(C)(C)C)CC1 (relative stereo) [(3) cis, cis- und trans-3-(4'-tert.-Butyl-cyclohexyl-l')-2--methyl-l-(2',6'-cis-dimethyl-morpholyl)-propan]
MIC (Epidermophyton floccosum): 0.25 µg/mL (≈ 0.808 µM)
MIC (Microsporum canis; Stamm No 155/M): 0.5 µg/mL (≈ 1.62 µM)
MIC (Microsporum canis; Stamm No 167/M): 0.0625 µg/mL (≈ 0.202 µM)
MIC (Microsporum canis; Stamm No 168/M): 0.0625 µg/mL (≈ 0.202 µM)
MIC (Microsporum ferrugineum): 0.0312 µg/mL (≈ 0.101 µM)
MIC ([1]; Stamm No 19/M): 1 µg/mL (≈ 3.23 µM)
MIC ([1]; Stamm No 21/M): 1 µg/mL (≈ 3.23 µM)
MIC ([1]; Stamm No 159/M): 0.0625 µg/mL (≈ 0.202 µM)
MIC ([1]; Stamm No 170/M): 0.0625 µg/mL (≈ 0.202 µM)
MIC ([1]; Stamm No 171/M): 0.0625 µg/mL (≈ 0.202 µM)
MIC ([1]; Stamm No 172/M): 0.25 µg/mL (≈ 0.808 µM)
MIC ([1]; Stamm No 173/M): 0.25 µg/mL (≈ 0.808 µM)
MIC (Trichophyton rubrum): > 1 µg/mL

Cc1cccc(N(C)C(=S)Oc2ccc3ccccc3c2)c1 [Tolnaftat, reference compound]
MIC (Epidermophyton floccosum): 0.32 µg/mL (≈ 1.04 µM)
MIC (Microsporum canis; Stamm No 155/M): 0.32 µg/mL (≈ 1.04 µM)
MIC (Microsporum canis; Stamm No 167/M): 0.16 µg/mL (≈ 0.52 µM)
MIC (Microsporum canis; Stamm No 168/M): 0.04 µg/mL (≈ 0.13 µM)
MIC (Microsporum canis; Stamm No 169/M): 0.32 µg/mL (≈ 1.04 µM)
MIC (Microsporum ferrugineum): 0.16 µg/mL (≈ 0.52 µM)
MIC (Microsporum gypseum): 0.16 µg/mL (≈ 0.52 µM)
MIC ([1]; Stamm No 19/M): 0.04 µg/mL (≈ 0.13 µM)
MIC ([1]; Stamm No 21/M): 0.32 µg/mL (≈ 1.04 µM)
MIC ([1]; Stamm No 159/M): 0.08 µg/mL (≈ 0.26 µM)
MIC ([1]; Stamm No 160/M): 0.32 µg/mL (≈ 1.04 µM)
MIC ([1]; Stamm No 170/M): 0.08 µg/mL (≈ 0.26 µM)
MIC ([1]; Stamm No 171/M): 0.16 µg/mL (≈ 0.52 µM)
MIC ([1]; Stamm No 172/M): 0.64 µg/mL (≈ 2.08 µM)
MIC ([1]; Stamm No 173/M): 0.32 µg/mL (≈ 1.04 µM)
MIC ([1]; Stamm No 174/M): 0.08 µg/mL (≈ 0.26 µM)
MIC (Trichophyton rubrum): 0.08 µg/mL (≈ 0.26 µM)
MIC [2]: 0.04 µg/mL (≈ 0.13 µM)
MIC (Trichophyton violaceum): < 0.01 µg/mL

CC1CC(C)CN(CC(C)C[C@H]2CC[C@@H](C(C)(C)C)CC2)C1 (relative stereo) [(2) cis, cis- und trans-3-(4'-tert.-Butyl-cyclohexyl-1')-2--methyl-1-(3',5'-dimethyl-1'-piperidino)-propan]
MIC (Microsporum canis; Stamm No 168/M): 0.0312 µg/mL (≈ 0.101 µM)
MIC (Microsporum ferrugineum): 0.0625 µg/mL (≈ 0.203 µM)
MIC ([1]; Stamm No 19/M): 0.25 µg/mL (≈ 0.813 µM)
MIC ([1]; Stamm No 159/M): 0.0156 µg/mL (≈ 0.0507 µM)
MIC ([1]; Stamm No 170/M): 0.0625 µg/mL (≈ 0.203 µM)
MIC ([1]; Stamm No 171/M): 0.0625 µg/mL (≈ 0.203 µM)
MIC ([1]; Stamm No 173/M): 0.25 µg/mL (≈ 0.813 µM)
MIC [2]: 0.0625 µg/mL (≈ 0.203 µM)
MIC (Trichophyton violaceum): 0.0625 µg/mL (≈ 0.203 µM)
